Experiments:
[1] = tested on: Root Knot Nematodes (Meloidogyne incognita); assay: Greenhouse pot test, root galling after inoculation with second stage juveniles; format: in vivo; settings: 300 ppm total a.i.
Excerpt: Procedure for Greenhouse pot Tests:
2″×2″ plastic pots are filled with 140 to 150 g of plant growth medium that is made up of non-pasteurized sand and soil at 2:1 ratio. Three cucumber seeds (variety Straight Eight; in the case of tomatoes, variety Rutgers) are planted at uniform depth and watered. Upon emergence, two uniform seedlings are allowed to grow in each pot by removing the third seedling. Seedlings are selected when the first true leaf is emerged, generally 5 to 7 days after planting. Each pot is treated with test material diluted in 25 mL of water that is just sufficient to wet the soil but not drip. Except for untreated control, all test pots are inoculated with about 800 second stage juveniles of Root Knot Nematodes (Meloidogyne incognita). Plants are watered as needed. Twelve to fourteen days after the pots are inoculated, the plants are carefully removed from the pots, the roots are gently washed free of soil and placed on paper towels, and data on fresh weight of shoots, roots, number of galls/treatment and/or per gram of root are taken.

[2] = tested on: nematodes; settings: at concentrations of 300 ppm; cited from earlier work
[3] = cucumber, preferred formulations of Table 2

Compound	% gall reduction in relation to M.i Control [1, 3]	Average gall rating (0-9) [1, 3]	% gall reduction in relation to M.i Control ([1]; prototype formulations of Table 1)	Average gall rating (0-9) ([1]; prototype formulations of Table 1, 0 = no galls, 9 = heavy galling)	nematicidal activity [2]
C=CCS[S+]([O-])CC=C (stereo not shown) [Allicin, allicin]	41.7%	5.25	72.7%	2.25	
O=CC=Cc1ccccc1 [Cinnamaldehyde, cinnamaldehyde]	19.4%	7.25			only marginal

Reference: patent US8334002B2, “Cinnamaldehyde—allicin compositions and their method of use” (Valent BioSciences Corporation, priority 2008, dated 2012)
